Results reported in US20140228407A1, “TETRA-PYRIDINE COMPOUNDS AND COMPOSITION FOR PROTECTING CELLS, TISSUES AND ORGANS AGAINST ISCHEMIA-REPERFUSION INJURY” (YISSUM RESEARCH DEVELOPMENT COMPANY OF THE HEBREW …, priority 2011, published 2014).

Tested on: PC12 cells
Test: PC12 ischemic model (oxygen and glucose deprivation), cell death by LDH measurement
Assay type: cell-based
Conditions: for protection percentile: protection from cell death, FIG. 6B: identical for both compounds
Method: PC12 cells were grown in 25 cm^2 flasks in Dulbecco's modified Eagles Medium (DMEM), supplemented with 7% fetal bovine serum (FBS), 7% horse serum, […] penicillin and 100 μg/ml streptomycin. Cells were grown in humidified incubator 5% CO2, 95% air at 37° C. The medium was replaced every 2 days, and upon 70% confluence, the cells were counted and seeded for the ischemia experiments.
Approximately 1×10^6 PC12 cells/well were cultured and exposed to ischemia (oxygen and glucose deprivation=OGD) for 4.5 hr. Prior to the exposure, the growth medium was replaced with glucose-free DMEM (1 ml/well). Ischemia was performed in a closed chamber by replacement of air with 95% nitrogen/5% CO2.
Ischemic stress injury was characterized by lactate dehydrogenase (LDH) released from cells. After 4.5 hr of ischemia, a 50 μl sample of supernatant was taken from each well for LDH measurement. At the end of the ischemic insult (after 4.5 hr), glucose (at final concentration of 4.5 g/L by adding 10 μl from stock solution of 450 mg/ml per well (1 ml)) was added to the plates which underwent ischemia. The plates were then transferred to a humidified incubator and exposed to 95% air/5% CO2 at 37° C. for additional 18 hr of reoxygenation. DMEM supernatant samples (25 μl/well) were collected from each well for LDH measurements. The samples were centrifuged at 3500 rpm for 5 min, and 5 μl aliquots of supernatant was taken for LDH measurement.
For every experiment, a duplicate plate was prepared as a control study under normoxia. Cells were kept in a humidified incubator (5% CO2 and 95% air at 37° C.) in cell culture complete medium at a volume of 1 ml for 18 hr, and the same compounds were added with the same concentrations. Supernatant was collected for LDH measurement as indicated in the LDH activity measurement section below. Afterwards (at the end of the reoxygenation phase), the plates were frozen (at −70° C. for 30 min) and thawed once. 25 μl/well sample was collected and the samples were centrifuged at 3500 rpm for 5 min and then taken for LDH measurement (total).
LDH activity was determined using LDH-L kit (Pointe Scientific Inc., Michigan, USA) in the PC12 cell medium. Medium samples (5 μl) were collected at the end of the ischemic insult (after 4.5 hr) and after the reoxygenation period. In parallel, samples from the plates exposed to normoxia were collected. LDH enzymatic activity was measured in a spectrophotometer at a wavelength of 340 nm at 37° C. Data analysis was performed as follows: [OD (cycle 3)−OD (cycle 1)experiment]−[OD(3)−OD(1) control])/[OD(3)−OD(1) total]×100, and presented as percentage of total cell death.
One day before the experiment, 12-well plates were coated with 200 μg/ml type I rat tail collagen (BD Biosciences, Bedford, Mass.) and were further sterilized under UV. 1×10^6 PC12 undifferentiated cells/well were seeded on the plates and allowed to adhere overnight under regular conditions (DMEM medium high glucose 4.5 mg/ml, 5% CO2 and 95% air at 37° C.). Each experiment included 4 plates, two for normoxia and two for ischemia which underwent the same following treatment for all 4 plates.
A half hour before the onset of the ischemic insult, the antioxidant Tempol (4-hydroxy-2,2,6,6-tetramethylpiperidine-1-oxyl) (Sigma, St. Louis, Mo.) at a concentration of 0.5 mM (10 μl/well taken from a 8.6 mg/ml stock solution) or TPEN at a concentration of 3 μM and 10 μM were added to the plates. Before the experiments, the medium was replaced with DMEM glucose free medium at 1 ml volume/well. TPEN or 10 μl Tempol were again added to the appropriate wells and was maintained throughout all experiments.
Thereafter, the plates were introduced into a device inducing ischemia atmosphere with 95% nitrogen and 5% CO2 for 4.5 hr. Oxygen level was monitored online by a digital oxygen monitor showing up to 1%. At the end of OGD, 25 μl from each well was collected into 0.5 ml tubes for the LDH assay. […]

## Cc1ccc(CN(CCN(Cc2ccc(C)cn2)Cc2ccc(C)cn2)Cc2ccc(C)cn2)nc1 [Compound #6]
1 μM vs 1 μM TPEN
  effectiveness relative to TPEN on PC12 cell death, FIG. 5: 2 fold
  protection of PC12 cells against ischemia insult-induced cell death vs TPEN at same concentration, FIG. 4: significantly more potent then TPEN
1 μM vs 3 μM TPEN
  protection of PC12 cells against ischemia insult-induced cell death vs 3 μM TPEN, FIG. 4: more effective than 3 μM TPEN
3 μM
  effectiveness relative to the un-protected control group of cells, FIG. 5: 4 fold
3 μM vs TPEN at the same concentration
  effectiveness relative to TPEN on PC12 cell death, FIG. 5: 3 fold
At similar concentrations (300 nM, 1 μM, 3 μM)
  protective effect on PC12 cell death, Compound #6 vs. Compound #4, FIG. 3: more effective than Compound #4
First of two selected concentrations (not given)
  protection percentile: protection from cell death, FIG. 6B: 29%
Second of two selected concentrations (not given)
  protection percentile: protection from cell death, FIG. 6B: 63%
Selected concentrations
  dose response function, attenuating cell death following ischemia-reperfusion, vs TPEN, FIG. 6A: superior to the latter
